From US11491105B2, “Methods of treating microbial infections, including mastitis” (priority 2013, dated 2022)

Experiments:
[1] = system: Staphylococcus isolates (methicillin-sensitive and methicillin-resistant); assay: Minimum inhibitory concentration assay (Example 1); format: cell-based; conditions: methicillin-resistant isolates
Experimental: Forty-two isolates of Staphylococcus of varying species and strain type were collected from isolate collections. Biochemical testing including coagulase, latex agglutination testing for protein A, Vogues-Proskauer tests and resistance to polymyxin B were used to identify the species of Staphylococcus. All isolates were also screened for resistance to various antimicrobials commonly used for the treatment of infections. This was performed using the disk diffusion method and resistance standards as outlined by the CLSI. The following antimicrobials were used: amoxicillin-clavulanic acid (30 μg), cephalothin (30 μg), clindamycin (2 μg), enrofloxacin (5 μg), erythromycin (15 μg), gentamicin (10 μg), imipenem (10 μg), oxacillin (1 μg), penicillin G (10 units), tetracycline (30 μg), 1:19 trimethoprim-sulfamethoxazole (25 μg) and vancomycin (30 μg).
Minimum inhibitory concentration tests were performed according to CLSI Standards (CLSI 2012). 90 μL of one of the test compound solutions, or ampicillin, was added to the end column of a 96 well plate that contained 90 μL of CAMHB in each well. The solutions were then serially diluted across the row, leaving 2 columns for positive and negative controls (FIG. 2). A bacterial suspension was prepared by adding fresh colonies obtained from an overnight culture on Sheep Blood Agar (SBA) to a 9.1 g/L saline solution. This suspension was adjusted to a concentration of between 4×10^8 and 5×10^8 CFU/mL. Concentration of the suspension was determined by measuring optical density (OD) using a spectrophotometer at a wavelength of 600 nm where the correct concentration was determined to have an optical density of between 1.00 and 1.20. 1 mL of this suspension was added to 9 mL of saline before being added to all wells, excluding the negative control wells, in 10 μL volumes giving a final concentration of between 4×10^5 and 5×10^5 CFU/mL in each well. The tests were then incubated for 24 hours at 37° C. and then assessed both visually and using OD readings from a microplate reader at a wavelength of 600 nm. These tests were performed in duplicate but repeated if discrepancies were observed.
The minimum inhibitory concentration (MIC) was determined to be the lowest concentration of antibiotic that prevented growth of bacteria both visually and using OD readings. Direct statistical comparisons between the test compounds and ampicillin could not be performed in light of confidential information restrictions, such as restrictions on disclosure of information relating to the compound structure, such as molecular weight. Instead, MIC values were collated and used to determine the lowest concentration of each compound that was effective against 50% and 90% of isolates, referred to as the MIC50 and MIC90 respectively. These values as well as the range of MIC values were then used for direct comparisons between test compounds and for general comparisons with ampicillin.

[2] = system: Staphylococcus isolates (methicillin-sensitive and methicillin-resistant); assay: Minimum bactericidal concentration determination (Example 1); format: cell-based; conditions: for bactericidal activity (MBC testing): methicillin-sensitive and methicillin-resistant strains
Experimental: Following determination of the MIC using the 96 well MIC plate, a variation of the drop plate method was used to determine minimum bactericidal concentration (MBC) for each of the test compounds. These were analysed using samples taken from the MIC plate following incubation. For each compound, a 10 μL drop of each concentration equal to or higher than the MIC was pipetted onto Sheep Blood Agar in a clockwise manner (FIG. 3). Each concentration was pipetted in duplicate with duplicates being pipetted on an inner ring of drops. The plates were incubated at 37° C. overnight and assessed the following day for growth. The MBC was defined as the concentration at which 99.9% of colonies were eradicated, which was visually assessed by a lack of growth on the agar where the drop was placed. […] The MBC values for 50% and 90% of the isolates (MBC50 and MBC90) were calculated and assessed along with the MBC range in order to select compounds for further study.

[3] = system: ATCC 49775 reference strain; assay: Microdilution time-kill assay; format: cell-based, Staphylococcus; conditions: for growth (optical density) compared to growth control: over a 48 hour period
Experimental: Following assessment of MIC and MBC results, two compounds were chosen for analysis using microdilution time-kill assays, LP 1369 and LP 6315 and these were compared to ampicillin. Time-kill assays were performed according to the M26-A guidelines of the CLSI, with modifications. The test compounds and ampicillin were serial diluted in CAMHB across the rows of a 96 well plate and a bacterial suspension was prepared and added in the same manner as the MIC testing. […] The time points assessed were 0, 1, 2, 4, 8, 12, 24 and 48 hours after the addition of the bacterial suspension to the wells. Each test compound was tested in triplicate while ampicillin was tested in duplicate and this test was independently repeated. The bacterial strains used for the microdilution assays were chosen based on bactericidal activity evident during MBC testing. One strain from each of the categories of Staphylococcus in the isolate collection (methicillin-sensitive, methicillin resistant and coagulase negative) were selected as well as the ATCC reference strain for comparison. These strains were strains MSS 1, MSS 11, MRSA 9 and the ATCC 49775 reference strain.

[4] = system: ATCC 49775 reference strain; assay: Macrodilution time-kill assay; format: cell-based, Staphylococcus; conditions: 24 hours
Experimental: (§1) Due to the detection limit of the OD measurements, the time-kill assays were also performed in macrodilution. In 15 mL tubes, 9 mL volumes of the test compounds in CAMHB were prepared at one, four and eight times the MIC concentration and 9 mL volumes of ampicillin were prepared in CAMHB at one and four times the MIC. 1 mL of a 4 to 5×10^6 bacterial suspension (as prepared for MIC testing) was added to each of the tubes as well as a growth control tube containing only 9 mL of CAMHB. These tubes were incubated at 37° C. in an orbital shaker rotating at 100 rpm for 24 hours. At 0, 1, 4, 8, 12 and 24 hours after addition of the bacteria, 100 μL samples were removed from each tube and serial diluted in 9.1 g/L saline solution. The dilutions were then plated in duplicate onto plate count agar and incubated for 24 hours at 37° C. After incubation, viable counts were obtained from the number of colonies visible on the agar and these were used to calculate the number of CFU/mL at each time point. For the macrodilution time-kill analysis, only the ATCC 49775 reference strain and MRSA 9 were assessed in order to further investigate the antibacterial activity against methicillin-resistant strains. These macrodilution time-kill assays were independently repeated and bactericidal activity was defined as a ≥3 log decrease in the number of CFU/mL.

MRSA 9 = assay: Macrodilution time-kill assay; format: cell-based, Staphylococcus aureus; conditions: 24 hours
Experimental: as §1

Row | SMILES | MIC50 and MIC90 values compared with ampicillin [1] | strains against which bactericidal activity was exhibited more consistently [2] | bactericidal activity (MBC testing) [2] | MBC50 (rank among test compounds) ([2]; methicillin-sensitive isolates) | growth (optical density) compared to growth control [3] | decrease in the number of viable bacteria ([4]; all concentrations tested) | decrease in the number of viable bacteria (MRSA 9; all concentrations tested) | MBC50 (rank among test compounds) ([2]; methicillin-resistant isolates) | growth at the MIC ([3]; at the MIC, 48 hours) | bactericidal or bacteriostatic (>=3 log decrease in CFU/mL = bactericidal) ([4]; LP 6315: most concentrations) | bactericidal or bacteriostatic (>=3 log decrease in CFU/mL = bactericidal) (MRSA 9; LP 6315: most concentrations) | decrease in colonies (MRSA 9; four times the MIC)
1 | CC[C@@H](C(=O)[C@@H](C)[C@@H](O)[C@H](C)CCc1ccc(C)c(O)c1C(=O)O)[C@H]1O[C@](CC)([C@H]2CC[C@](O)(CC)[C@H](C)O2)C[C@@H]1C [LP 1369, Lasalocid] | considerably lower than ampicillin | methicillin-sensitive strains | some bactericidal activity in lower concentrations | lowest MBC50 values | prevented the growth | < 3 log10 | < 3 log10 |  |  |  |  | 
2 | CO[C@@H]1[C@@H](OC)[C@H](C)[C@@](O)(CC(=O)O)O[C@H]1[C@H](C)[C@H]1O[C@@]2(CC[C@@](C)([C@H]3CC[C@@](C)([C@@H]4O[C@@H]([C@H]5O[C@](C)(O)[C@H](C)C[C@@H]5C)C[C@@H]4O[C@@H]4C[C@H](OC)[C@@H](OC)[C@H](C)O4)O3)O2)C[C@H](O)[C@H]1C.N [LP 6315, Maduramicin] | considerably lower than ampicillin | methicillin-sensitive strains | some bactericidal activity in lower concentrations |  | prevented the growth |  |  | lowest MBC50 values | Some growth was observed after 48 hours | bacteriostatic | bacteriostatic | > 3 log10
